Details: for log10 BCF / log10 biotransformation half-life (days): fish

With `C=CCCCc1ccccc1` the boiling point was 201 °C.

`COC(=O)Nc1ccccc1` gave a log10 Koc (L/kg) of 1.73.

`Clc1cc2c(Cl)cc(Cl)c(Cl)c2c(Cl)c1Cl` gave a log10 Koa of 9.67 and a log10 vapour pressure (mmHg) of -6.46.

`CCCC(CC)c1ccccc1` (centres undefined) showed a boiling point of 209 °C and a melting point of -55.4 °C.

In the case of `Brc1c(Br)c(Br)c(-c2c(Br)c(Br)c(Br)c(Br)c2Br)c(Br)c1Br`, the log10 vapour pressure (mmHg) is reported as -9.4, the melting point is reported as 375 °C and the ready biodegradability is reported as “not readily biodegradable”. The log10 BCF was 5.19.

Work on `CCc1ccc(O)c(C(C)(C)C)c1` yielded a log10 vapour pressure (mmHg) of -1.74.

`C=C[C@H]1C[N@@]2CC[C@H]1C[C@H]2C12Nc3ccccc3C1(O)CCO2` (some centres undefined) gave a melting point of 186 °C.

`Clc1cc2c(cc1Cl)Oc1c(Cl)c(Cl)cc(Cl)c1O2` showed a log10 vapour pressure (mmHg) of -9.23 and a melting point of 206 °C.

For `COc1ccc(CC#N)cc1`, the boiling point was 286 °C.

In the case of `Cc1ccc(S)c(S)c1`, the melting point is reported as 29 °C.

`Clc1ccc(Oc2ccccc2Cl)cc1Cl` showed a log10 vapour pressure (mmHg) of -3.85.

Work on `FC(Br)(Br)Br` yielded a boiling point of 108 °C and a melting point of -73.6 °C.

`CC(C)[C@@H]1CCCCC1=O` gave a melting point of 72.5 °C.

With `O=C(O)c1ccc(C(=O)O)nc1` the melting point was 254 °C, the ready biodegradability was “not readily biodegradable” and the log10 BCF was 0.76.

For `COC(=O)c1ccc2c(c1)OCO2`, the melting point was 53 °C.

`C=CC(=C)C` gave a boiling point of 34 °C, a log10 Koa of 2.06 and a log10 vapour pressure (mmHg) of 2.74. The melting point was -146 °C, the ready biodegradability was “not readily biodegradable” and the log10 BCF was 1.3. It also gave a log10 biotransformation half-life (days) of -0.61.

For `FC(Cl)(Cl)C(F)(Cl)Cl`, the boiling point was 93 °C, the log10 vapour pressure (mmHg) was 1.7 and the melting point was 26 °C. The ready biodegradability was “not readily biodegradable” and the log10 BCF was 1.77.

`O=C(C=Cc1ccccc1)c1ccccc1O` showed a melting point of 90 °C.

Molecule `O=Cc1cc([N+](=O)[O-])ccc1O` has a melting point of 129 °C.

`CCCC#CCCC` gave a boiling point of 132 °C, a log10 vapour pressure (mmHg) of 0.985 and a melting point of -101 °C.

For `CC(=O)Oc1cc(C(C)C)c(OCCN(C)C)cc1C`, the melting point was 144 °C.

Work on `Oc1ccccc1-c1ccccc1` yielded a boiling point of 286 °C, a log10 vapour pressure (mmHg) of -2.7 and a melting point of 59 °C. The ready biodegradability was “readily biodegradable”.

Molecule `CN(C)[C@@H]1C(O)=C(C(N)=O)C(=O)[C@@]2(O)C(O)=C3C(=O)c4c(O)ccc(Cl)c4[C@@](C)(O)[C@H]3C[C@@H]12` has a melting point of 168 °C.

In the case of `Nc1ccc2cc(S(=O)(=O)O)cc(O)c2c1`, the ready biodegradability is reported as “not readily biodegradable” and the log10 BCF is reported as 0.61.

Molecule `C=Cc1ccc2ccccc2c1` has a melting point of 66 °C.

Work on `Cc1cc(=O)c2ccccc2[nH]1` yielded a melting point of 234 °C.

In the case of `O=[N+]([O-])c1ccc(Br)cc1`, the boiling point is reported as 256 °C, the log10 Koc (L/kg) is reported as 2.42 and the melting point is reported as 127 °C.

Work on `C1CCC2OC2C1` (centres undefined) yielded a boiling point of 132 °C.

Work on `Fc1ccccc1` yielded a boiling point of 84.7 °C, a log10 Henry constant (atm·m³/mol) of -2.2 and a log10 vapour pressure (mmHg) of 1.89. It also gave a melting point of -42.2 °C.

In the case of `c1ccc(-c2nnc(-c3ccccc3)o2)cc1`, the melting point is reported as 139 °C.

Molecule `CN1CCCN=C1/C=C/c1cccs1` has a melting point of 178 °C.

For `CCCCOCCOC(=O)COc1cc(Cl)c(Cl)cc1Cl`, the log10 vapour pressure (mmHg) was -5.82.

Molecule `O=[N+]([O-])CC(O)C(Cl)(Cl)Cl` (centres undefined) has a melting point of 45.5 °C.

`CN(C)c1ccc(Br)cc1` gave a boiling point of 264 °C and a melting point of 55 °C.

Molecule `Cc1c(Cl)ccc(Cl)c1Cl` has a log10 Henry constant (atm·m³/mol) of -2.82.

In the case of `C=Cc1ccncc1`, the log10 Koc (L/kg) is reported as 1.18, the log10 vapour pressure (mmHg) is reported as 0.23 and the ready biodegradability is reported as “not readily biodegradable”. It also gave a log10 BCF of 1.86.

Molecule `CCCOC(OCCC)OCCC` has a boiling point of 191 °C.

Work on `O=[N+]([O-])c1cccc2cccc(Cl)c12` yielded a melting point of 95.8 °C.

In the case of `OC[C@]1(O)OC[C@@H](O)[C@H](O)[C@@H]1O`, the melting point is reported as 134 °C.

Work on `CN(C(=O)C(Cl)Cl)c1ccc(O)cc1` yielded a melting point of 175 °C.

For `O=C(O)c1ccc2cc(C(=O)O)ccc2c1`, the ready biodegradability was “not readily biodegradable” and the log10 BCF was 0.81.

Work on `C=CCN1CCCC1CNC(=O)c1cc(S(=O)(=O)NC)c(N)cc1OC` (centres undefined) yielded a melting point of 169 °C.

`C=C1C2CCC(C2)C1(C)C` (centres undefined) gave a boiling point of 160 °C, a log10 vapour pressure (mmHg) of 0.399 and a melting point of 51.6 °C. The ready biodegradability was “not readily biodegradable”, the log10 BCF was 2.98 and the log10 biotransformation half-life (days) was 0.96.

With `CCc1sccc1C` the boiling point was 161 °C.

Molecule `O=C1C=CCO1` has a melting point of 4.5 °C.

Work on `Nc1nccnn1` yielded a melting point of 176 °C.

Work on `NCC(F)(F)F` yielded a boiling point of 37.5 °C.

`BrCCCCCCCBr` showed a boiling point of 263 °C and a melting point of 41.7 °C.

Work on `C=C(C)C(=O)OCC(C)C` yielded a boiling point of 155 °C and a log10 vapour pressure (mmHg) of 0.56.

Molecule `NS(=O)(=O)c1ccc(SCCO)c(F)c1` has a melting point of 110 °C.

`CCC(Cl)C(C)Cl` (centres undefined) gave a boiling point of 139 °C and a melting point of -77.3 °C.
